Measurements as given in patent publication US5502065A, “Indole derivatives as 5-HT1 -like agonists” (Pfizer Inc., priority 1992, dated 1996).
Like-named read-outs stand apart in the source and are kept apart here.

Key:
[1] = molecular target: T1, "5-HT1 -like" receptor (Canis lupus familiaris, UniProt P79250); assay: contraction of dog isolated saphenous vein strip ("5-HT1 -like" receptor agonist activity); conditions: for Emax: read-out: […] RELATIVE TO 5-HT RESPONSE, relative to 5-HT response, read-out: PERCENTAGE AGONISM RELATIVE TO 5-HT RESPONSE
T1 construct: dog isolated saphenous vein strip; from tissue; host or cells: dog isolated saphenous vein strip
Method: The in vitro evaluation of the "5-HT1 -like" receptor agonist activity of the compounds of the formula (I) is carried out by testing the extent to which they mimic sumatriptan in contracting the dog isolated saphenous vein strip (P. P. A. Humphrey et al., .Br. J. Pharmacol., 94, 1123 (1988)).
The in vitro evaluation of the "5-HT1 -like" receptor agonist activity of the compounds of the invention is carried out by testing the extent to which they mimic sumatriptan in contracting the isolated dog saphenous vein strip (P. P. A. Humphrey et al., Brit. J. Pharmacol., 1988, 94, 1123).
EC50 represents the concentration of compound which causes 50% of the maximum contraction effected by it.

[2] = system: carotid vascular bed; conditions: anaesthetized dog, cited from earlier work
[3] = molecular target: T1, "5-HT1 -like" receptor; conditions: dog isolated saphenous vein strip; cited from earlier work
[4] = dog isolated saphenous vein strip

T1 sequence (P79250 whole entry): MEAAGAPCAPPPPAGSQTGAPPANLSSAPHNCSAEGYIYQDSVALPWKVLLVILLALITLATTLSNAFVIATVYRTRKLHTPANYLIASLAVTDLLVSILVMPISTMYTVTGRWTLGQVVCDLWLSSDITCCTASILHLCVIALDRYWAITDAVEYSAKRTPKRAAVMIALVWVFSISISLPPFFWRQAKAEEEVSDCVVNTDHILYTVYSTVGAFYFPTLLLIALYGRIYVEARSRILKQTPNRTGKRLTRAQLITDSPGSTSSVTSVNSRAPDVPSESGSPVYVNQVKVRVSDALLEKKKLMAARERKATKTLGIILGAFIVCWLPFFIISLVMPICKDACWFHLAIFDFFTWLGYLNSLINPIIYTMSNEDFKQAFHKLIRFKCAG

| Structure (SMILES) | EC50 [1] [nM] | Emax [1, 4] [%] | also measured |
| --- | --- | --- | --- |
| c1ncc(-c2ccc3[nH]cc(C[C@H]4CCCN4CC4CC4)c3c2)cn1 [Example 60, 3-(1-Cyclopropylmethylpyrrolidin-2(R)-ylmethyl)-5-(5-pyrimidinyl)-1H-indole] | 9.2 | 105 |  |
| CNS(=O)(=O)Cc1ccc2[nH]cc(CCN(C)C)c2c1 [Sumatriptan] |  |  | carotid vascular resistance [2]: selective increase; carotid arterial blood flow ([2]; consequent on increased carotid vascular resistance): decrease |
| CN1CCC[C@@H]1Cc1c[nH]c2ccc(-c3ccc(CO)o3)cc12 [Example 66, 5-(5-Hydroxymethyl-2-furyl)-3-(1-methylpyrrolidin-2(R)-ylmethyl)-1H -indole] | 19 | 80 |  |
| CN1CCC[C@@H]1Cc1c[nH]c2ccc(-c3cncc(C#N)c3)cc12 [Example 53] | 26 | 75 |  |
| CN(C)C(=O)CCN1CCC[C@@H]1Cc1c[nH]c2ccc(-c3cccc(C(=O)N(C)C)c3)cc12 [Example 46, 3-1-(2-N,N-dimethylcarbamoylethyl)pyrrolidin-2(R)-ylmethyl!5-(3-N,N-dimethylcarbamoylphenyl)-1H-indole] |  | 78 | EC50 ([1]; dog isolated saphenous vein strip, concentration of compound which causes 50% of the maximum contraction effected by it, read-out: EC50): 160 nM |
| OCc1ccc(-c2ccc3[nH]cc(C[C@H]4CCCN4)c3c2)cc1 [Example 37, 5-(4-Hydroxymethylphenyl)-3-(pyrrolidin-2(R)-ylmethyl)-1H-indole] | 76 | 72 |  |
| CN1CCC[C@@H]1Cc1c[nH]c2ccc(-c3cccc(S(N)(=O)=O)c3)cc12 [Example 3] | 3.78 | 85 |  |
| CN1CCC[C@@H]1Cc1c[nH]c2ccc(-c3ccc(C(N)=O)s3)cc12 [Example 64, 5-(5-Carbamoyl-2-thienyl)-3-(1-methylpyrrolidin-2(R)-ylmethyl)-1H-indole] | 25 | 79 |  |
| CSc1ccc2c(c1)C(N1CCN(C)CC1)Cc1ccccc1S2 (centres unmarked) [methiothepin] |  |  | block of saphenous vein contraction (5-HT antagonism) [3]: can be blocked |
